Measurements as given in patent US20140187430A1, “Compositions and Methods for Identifying Autism Spectrum Disorders” (George Washington University, priority 2010, published 2014).
“Also recorded” adds a separate entry of the source.

Experiments:
Assay type in all cases: cell-based, human
[1] = tested on: BCL-2; experiment: qRT-PCR of BCL-2 transcript in LCL after 5-Aza-2-deoxycytidine treatment; details: 5 μM, 48 hours
Method: (§1) LCL, which were obtained from the Autism Genetic Research Exchange (AGRE; Los Angeles, Calif.) were derived from lymphocytes of autistic and normal siblings and cultured as previously described (Hu et al. (2006) BMC Genomics 7, 118). Demethylating treatments were carried out by incubating cells in culture with 5 μM 5-Aza-2-deoxycytidine (Fluka, St. Louis, Mo.) or vehicle control, DMSO (FisherBioTech, Pittsburgh, Pa.) for 48 hours before harvesting cells.
(§2) Genomic DNA was isolated using the Qiagen DNeasy™ Blood and Tissue Kit (Valencia, Calif.) and used for bisulfite modification for methylation analyses. Total RNA was isolated using TRIzol reagent (Invitrogen, Carlsbad, Calif.) according to the manufacturer's protocol and used for gene expression analyses by quantitative RT-PCR. […]
(§3) Two candidate genes, BCL-2 and RORA, were chosen for quantitative real-time (RT)-PCR analysis to examine the correlation between expression of mRNA transcript and methylation status as predicted by microarray analysis, as well as to examine the effect of 5-Aza-2-deoxycytidine treatment on transcript levels. […] The qPCR reactions (in triplicate) were analyzed on an ABI Prism 7300 Sequence Detection System and transcript levels of BCL-2 and RORA were quantified and normalized to standard curves obtained using universal 18S rRNA primers.

[2] = tested on: upstream CpG island region of RORA; experiment: Methylation-specific PCR (MSP) of upstream CpG island region of RORA in LCL; details: LCL of autistic individuals; 5 μM, 48 hours
Method: as §1
Two ug of genomic DNA isolated from LCL were treated with sodium bisulfite using the Active Motif MethylDetector kit (Carlsbad, Calif.) according to the manufacturer's specifications. Successful bisulfite treatment and conversion was verified using positive control PCR primers for the p16 (CDKN2A) locus provided in the MethylDetector kit.
For methylation-specific PCR (MSP), 2 sets of primers spanning a region approximately 300 bp upstream of the first exon of RORA (UHNhscpg0014103; chr15:59309160-59309428) were designed according to assumed differences in methylation status (i.e., fully methylated or fully unmethylated). These primers were previously successful in identifying methylation-specific silencing of RORA in several gastric cancer cell lines (Yamashita et al. (2006) Cancer Science 97, 64-71). Bisulfite-modified genomic DNA was used as a template for PCR and PCR products were resolved by agarose gel electrophoresis.

[3] = tested on: RORA; experiment: qRT-PCR of RORA transcript in LCL after 5-Aza-2-deoxycytidine treatment; details: 5 μM, 48 hours
Method: as §1, §2, §3

[4] = LCL from the "mild" undiagnosed co-twins
[5] = LCL of autistic individuals, vs DMSO vehicle

Nc1ncn([C@H]2C[C@H](O)[C@@H](CO)O2)c(=O)n1 [5-Aza-2-deoxycytidine]
change in BCL-2 expression level with treatment [1, 4]: no statistically significant increases | fold-change in BCL-2 transcript expression following treatment [1, 5]: 1.5 fold | methylated PCR product of RORA promoter region (MSP) following treatment [2]: absence of methylated product; also recorded: absence of methylation | change in RORA expression level with treatment [3, 4]: no statistically significant increases | fold-change in RORA transcript expression following treatment [3, 5]: 1.8 fold
